Test results from patent US20100286173A1 (priority 2008, published 2010).

Assay: Measurement of logP values by HPLC on reversed phase columns (EEC directive 79/831 Annex V.A8)
Format: physicochemical
Conditions: pH 2.7, 0.1% formic acid in water / acetonitrile gradient 10% to 95%

Structure (SMILES)	logp	Log p
CCCCCOC(=O)Nc1cccc(CON=C(c2ccc(C(F)(F)F)cc2F)c2nnnn2C)n1 (single isomer, unassigned) [Example 23]	4.78	
CCCCCOC(=O)Nc1cccc(CON=C(c2ccc(C(F)(F)F)cc2F)c2nnnn2C)n1 (single isomer, unassigned) [Example 24]	4.73	
CC(C)C(=O)Nc1cccc(CON=C(c2ccc(C(F)(F)F)cc2F)c2nnnn2C)n1 (single isomer, unassigned) [Example 28]	3.48	
CCCCCOC(=O)Nc1cccc(CON=C(c2ccc(OC(F)(F)F)cc2C)c2nnnn2C)n1 (single isomer, unassigned) [Example 96]	4.89	
CCCCCOC(=O)Nc1cccc(CON=C(c2ccc(OC(F)(F)F)cc2C)c2nnnn2C)n1 (single isomer, unassigned) [Example 97]	5.11	
CCCCCC(=O)Nc1cccc(CON=C(c2ccc(C)c(F)c2)c2nnnn2C)n1 (single isomer, unassigned) [Example 102]	4.21	
CCCCCC(=O)Nc1cccc(CON=C(c2ccc(OC(F)(F)F)cc2C)c2nnnn2C)n1 (single isomer, unassigned) [Example 108]	4.39	
CCCCCOC(=O)Nc1cccc(CON=C(c2cc(C(F)(F)F)ccc2C)c2nnnn2C)n1 (single isomer, unassigned) [Example 110]	4.84	
CCCCCC(=O)Nc1cccc(CON=C(c2ccc(C)cc2Cl)c2nnnn2C)n1 (single isomer, unassigned) [Example 113]	4.16	
CCCCCC(=O)Nc1cccc(CON=C(c2ccc(C)c(F)c2)c2nnnn2C)n1 (single isomer, unassigned) [Example 114]	4.16	
CCCCCC(=O)Nc1cccc(CON=C(c2cc(C)ccc2Cl)c2nnnn2C)n1 (single isomer, unassigned) [Example 117]	4.19	
Cn1nnnc1C(=NOCc1cccc(N)n1)c1ccc(C(F)(F)F)cc1F (single isomer, unassigned) [Example 141]		1.82
Cn1nnnc1C(=NOCc1cccc(N)n1)c1ccc(C(F)(F)F)cc1F (single isomer, unassigned) [Example 142]		1.72
Cn1nnnc1C(=NOCc1cccc(N)n1)c1cccc(C(F)(F)F)c1F (single isomer, unassigned) [Example 144]		1.65
Cc1cc(F)cc(C(=NOCc2cccc(NC(=O)CC(C)C)n2)c2nnnn2C)c1 (single isomer, unassigned) [Example 157]		3.71
Cc1cc(F)cc(C(=NOCc2cccc(NC(=O)CC(C)C)n2)c2nnnn2C)c1 (single isomer, unassigned) [Example 158]		3.76
CCCCCC(=O)Nc1cccc(CON=C(c2ccc(C(F)(F)F)cc2F)c2nnnn2C)n1 [Example 26]	4.29	
CCCCCC(=O)Nc1cccc(CON=C(c2cc(C)ccc2F)c2nnnn2C)n1 [Example 29]	3.83	
Cc1ccc(C(=NOCc2cccc(NC(=O)CC(C)C)n2)c2nnnn2C)cc1F [Example 32]	3.71	

Same assay, conditions: reversed phase HPLC column, pH 2.7, 0.1% formic acid in water / acetonitrile gradient 10% to 95%

Structure (SMILES)	chromatographic logP
CCCCOC(=O)Nc1ccnc(CON=C(c2ccc(C)c(C(F)(F)F)c2)c2nnnn2C)n1 [Example 8, butyl(2-{[({(1-methyl-1H-tetrazol-5-yl)[4-methyl-3-(trifluoromethyl)phenyl]methylidene}amino)oxy]methyl}pyrimidin-4-yl)carbamate]	4.24
CCCCCOC(=O)Nc1nc(CON=C(c2ccc(C)c(C(F)(F)F)c2)c2nnnn2C)cs1 [Example 22, pentyl(4-{[({(1-methyl-1H-tetrazol-5-yl)[4-methyl-3-(trifluoromethyl)phenyl]methylidene}amino)oxy]methyl}-1,3-thiazol-2-yl)carbamate]	4.73
CCCCCC(=O)Nc1cccc(CON=C(c2cccc(C(F)(F)F)c2F)c2nnnn2C)n1 [Example 27, N-(6-{[({[2-fluoro-3-(trifluoromethyl)phenyl](1-methyl-1H-tetrazol-5-yl)methylidene}amino)oxy]methyl}pyridin-2-yl)hexanamide]	4.16
